Assay results reported in patent US8822407B2, “Preparation of conjugates comprising adenine derivatives and allergenic proteins and their use for specific immunotherapy of allengenic diseases” (Universita' Degli Studi di Firenze, priority 2010, dated 2014).

Columns and labels:
purified CD14+ cells = assay: Cytokine production by purified CD14+ cells (ELISA of supernatants, 36 hrs); assay type: cell-based, human; conditions: Table B, dose 2 μg/ml
Description: Circulating mononuclear cells (MNC) are isolated by density gradient (Ficoll-Hypaque) using buffy coats from 14 normal donors (Servizio Immunotrasfusionale e terapie cellulari, Azienda Ospedaliera Universitaria A. Meyer, Firenze). 200×10^6 MNC are separated by the use of a commercial kit (CD14 isolation kit, Miltenyi) by the addition of 400 μl anti-CD14 monoclonal antibody bound to iron beads followed by isolation on magnetic columns (LS column). 50×10^6 monocytes are recovered by positive selection and are extensively washed with calcium and magnesium-free sterile PBS and then seeded in complete medium plus 10% foetal calf serum in 24 flat bottomed plates at the concentration of 1×10^6/ml. […] The plates are incubated for 36 hrs at 37° C. in 5% CO2 humidified atmosphere and the supernatants are collected after centrifugation at 1200 rpm, aliquoted and then stored at −20° C. up to the assay. […]
(§1) For the determination of cytokines and chemokines of the innate immunity, commercial ELISAs have been used: IL-12p40 (Cytoscreen, Biosource Int, Camarillo, Calif.), IFN-alfa (Cytoscreen), TNF-alfa (Cytoscreen), IL-10 (Pharmingen), IL-6 and CXCL10 (R&D System). 100 μl/well of single supernatants are incubated in flat bottomed plates as specified by the productors and the amounts of the single cytokines are expressed as pg/ml on the basis of a reference curve by using recombinant cytokines.

purified BDCA4+ cells = assay: Cytokine production by purified BDCA4+ cells (plasmacytoid dendritic cells), ELISA; assay type: cell-based, human
Description: The preparation of purified BDCA4+ cells has been obtained in a similar way starting from MNC of buffy coats of the same 14 healthy donors. […] By positive selection 5×10^6 plasmacytoid dendritic cells (PDCs) are recovered, extensively washed with calcium and magnesium-free sterile PBS and seeded in complete medium plus 10% foetal calf serum in 24-flat bottomed plates at the concentration 1×10^6/ml. […] The plates are incubated for 36 hrs at 37° C. in 5% CO2 humidified atmosphere and the supernatants are collected after centrifugation at 1200 rpm, aliquoted and then stored at −20° C. up to the assay. […]
as §1

human TLR7 = target: T1, human TLR7 (Homo sapiens, UniProt Q9NYK1); assay: TLR7 activation, NF-kB luciferase reporter in transfected HEK293 cells; assay type: cell-based; conditions: human TLR7-encoding plasmid
T1 construct: expressed in transfected cells; host or cells: HEK293 (transient Nucleofection, Amaxa)
T1 sequence (Q9NYK1 27-1049): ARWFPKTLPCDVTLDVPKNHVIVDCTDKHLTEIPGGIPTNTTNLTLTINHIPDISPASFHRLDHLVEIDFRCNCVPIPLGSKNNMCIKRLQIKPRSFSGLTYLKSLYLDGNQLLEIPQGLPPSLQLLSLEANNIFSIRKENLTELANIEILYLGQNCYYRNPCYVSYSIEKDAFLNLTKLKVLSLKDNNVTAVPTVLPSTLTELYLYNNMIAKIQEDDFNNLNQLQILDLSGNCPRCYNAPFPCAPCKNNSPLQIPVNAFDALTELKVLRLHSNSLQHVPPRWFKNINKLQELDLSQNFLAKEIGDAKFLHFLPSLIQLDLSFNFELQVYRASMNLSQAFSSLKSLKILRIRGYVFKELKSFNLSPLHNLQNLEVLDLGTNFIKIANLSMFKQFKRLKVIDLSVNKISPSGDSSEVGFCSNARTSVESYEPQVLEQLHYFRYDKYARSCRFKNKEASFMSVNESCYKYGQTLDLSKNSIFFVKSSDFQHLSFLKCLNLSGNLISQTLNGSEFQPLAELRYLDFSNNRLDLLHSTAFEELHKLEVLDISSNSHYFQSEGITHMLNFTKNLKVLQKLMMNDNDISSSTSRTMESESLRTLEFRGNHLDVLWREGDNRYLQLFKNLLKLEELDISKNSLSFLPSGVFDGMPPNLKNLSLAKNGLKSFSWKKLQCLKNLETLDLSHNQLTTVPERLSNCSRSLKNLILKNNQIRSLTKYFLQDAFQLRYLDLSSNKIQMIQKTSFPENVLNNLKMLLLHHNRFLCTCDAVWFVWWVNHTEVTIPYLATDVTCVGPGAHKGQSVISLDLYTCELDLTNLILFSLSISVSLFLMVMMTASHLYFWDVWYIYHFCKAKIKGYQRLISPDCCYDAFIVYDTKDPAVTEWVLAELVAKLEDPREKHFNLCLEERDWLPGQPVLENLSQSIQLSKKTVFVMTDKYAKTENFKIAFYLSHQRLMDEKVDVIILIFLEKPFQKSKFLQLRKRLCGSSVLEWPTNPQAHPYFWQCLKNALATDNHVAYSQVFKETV
Description: HEK293 cells are detached by trypsin from the plastic surface of the culture bottle, extensively washed with calcium and magnesium-free PBS, counted and adjusted at the concentration 1×10^6 cells/tube in polypropylene V-bottomed tubes. After the final wash, the cells are pelleted and 100 μl transfection buffer (Amaxa) is added together with […], TLR7, TLR8 or TLR9-encoding and ELAM-1 promoter NF-kB luciferase reporter plasmids. The mixture thus obtained is transferred in special cuvettes and transient transfection is obtained in a special apparatus which is able to directly introduce genetic material into the nucleus (Nucleofection®, Amaxa GmbH). The cells are then recovered and cultured at 1×10^5/ml in 48-flat bottomed plates in E-MEM medium plus 5% foetal calf serum for 18 hrs. […] Finally the luciferase activity is measured in the cellular lysates by a commercial kit (Promega).

[1] = Table C, Donor #1, R-848, dose not printed in table (2 μg/ml elsewhere in the source)
[2] = Table C, Donor #2, R-848 (2 μg/ml)
[3] = Table F, Donor #1, dose 2 μg/ml
[4] = Table F, Donor #2, dose 2 μg/ml

TLR7 activation (NF-κB luciferase) in transfected HEK293 cells (human TLR7): able to induce NF-κB expression
SMILES: CCOCc1nc2c(N)nc3ccccc3c2n1CC(C)(C)O [Conj R-848, reference compound]
IL-6 production (mean ± SE) (purified CD14+ cells): 45.8 ± 15.2 ng/mL
IL-10 production (mean ± SE) (purified CD14+ cells): 2.0 ± 0.5 ng/mL
IL-12p40 production (mean ± SE) (purified CD14+ cells): 16.9 ± 6.3 ng/mL
TNF-alfa production (mean ± SE) (purified CD14+ cells): 16.3 ± 4.9 ng/mL
IFN-alfa production (purified BDCA4+ cells; [1]): 3154 pg/mL
IL-6 production (purified BDCA4+ cells; [1]): 746 pg/mL
IL-10 production (purified BDCA4+ cells; [1]): 1500 pg/mL
TNF-alfa production (purified BDCA4+ cells; [1]): 10368 pg/mL
IFN-alfa production (purified BDCA4+ cells; [2]): 6187 pg/mL
IL-6 production (purified BDCA4+ cells; [2]): 308 pg/mL
IL-10 production (purified BDCA4+ cells; [2]): 753 pg/mL
TNF-alfa production (purified BDCA4+ cells; [2]): 20990 pg/mL
IFN-alfa production (mean ± SE) (purified BDCA4+ cells; Table D, dose 2 μg/ml): 5.6 ± 2.5 ng/mL
IL-6 production (mean ± SE) (purified BDCA4+ cells; Table D, dose 2 μg/ml): 7.7 ± 2.6 ng/mL
IL-10 production (mean ± SE) (purified BDCA4+ cells; Table D, dose 2 μg/ml): 1.0 ± 0.6 ng/mL
TNF-alfa production (mean ± SE) (purified BDCA4+ cells; Table D, dose 2 μg/ml): 5.4 ± 1.4 ng/mL
IFN-alfa production (purified BDCA4+ cells; [3]): 1131 pg/mL
IL-6 production (purified BDCA4+ cells; [3]): 44302 pg/mL
IL-10 production (purified BDCA4+ cells; [3]): 1864 pg/mL
TNF-alfa production (purified BDCA4+ cells; [3]): 4832 pg/mL
IFN-alfa production (purified BDCA4+ cells; [4]): 1605 pg/mL
IL-6 production (purified BDCA4+ cells; [4]): 37603 pg/mL
IL-10 production (purified BDCA4+ cells; [4]): 1305 pg/mL
TNF-alfa production (purified BDCA4+ cells; [4]): 6898 pg/mL
cytokine production from BDCA4+ cells (in words) (purified BDCA4+ cells; text to Tables C and D): high levels of IFN-alfa, IL-10 and CXCL10
